Reference: ChEMBL document CHEMBL4219273, “Discovery of a novel olefin derivative as a highly potent and selective acetyl-CoA carboxylase 2 inhibitor with in vivo efficacy” (Bioorg Med Chem Lett, 2018)
pIC50: −log10 of the molar value.

Experiments:
Cytochrome P450 3A4 = Cytochrome P450 3A4 (Homo sapiens, UniProt P08684); assay: Inhibition of CYP3A4 (unknown origin); assay type: ADME
Cytochrome P450 2C9 = Cytochrome P450 2C9 (Homo sapiens, UniProt P11712); assay: Inhibition of CYP2C9 (unknown origin); assay type: ADME
Homo sapiens = species on record: Homo sapiens; assay: Selectivity ratio of IC50 for recombinant human ACC1 to IC50 for recombinant human ACC2
Cytochrome P450 2C19 = Cytochrome P450 2C19 (Homo sapiens, UniProt P33261); assay: Inhibition of CYP2C19 (unknown origin); assay type: ADME
Acetyl-CoA carboxylase 1 = Acetyl-CoA carboxylase 1 (Homo sapiens, UniProt Q13085); assay: Inhibition of recombinant human ACC1 assessed as reduction in conversion of acetyl-CoA to malonyl-CoA incubated for 1 to 3 hrs with substrate by MALDI-TOF-MS analysis
Cytochrome P450 2D6 = Cytochrome P450 2D6 (Homo sapiens, UniProt P10635); assay: Inhibition of CYP2D6 (unknown origin); assay type: ADME
Cytochrome P450 1A2 = biological target: T1, Cytochrome P450 1A2 (Homo sapiens, UniProt P05177); assay: Inhibition of CYP1A2 (unknown origin); assay type: ADME
T1 sequence (P05177 whole entry): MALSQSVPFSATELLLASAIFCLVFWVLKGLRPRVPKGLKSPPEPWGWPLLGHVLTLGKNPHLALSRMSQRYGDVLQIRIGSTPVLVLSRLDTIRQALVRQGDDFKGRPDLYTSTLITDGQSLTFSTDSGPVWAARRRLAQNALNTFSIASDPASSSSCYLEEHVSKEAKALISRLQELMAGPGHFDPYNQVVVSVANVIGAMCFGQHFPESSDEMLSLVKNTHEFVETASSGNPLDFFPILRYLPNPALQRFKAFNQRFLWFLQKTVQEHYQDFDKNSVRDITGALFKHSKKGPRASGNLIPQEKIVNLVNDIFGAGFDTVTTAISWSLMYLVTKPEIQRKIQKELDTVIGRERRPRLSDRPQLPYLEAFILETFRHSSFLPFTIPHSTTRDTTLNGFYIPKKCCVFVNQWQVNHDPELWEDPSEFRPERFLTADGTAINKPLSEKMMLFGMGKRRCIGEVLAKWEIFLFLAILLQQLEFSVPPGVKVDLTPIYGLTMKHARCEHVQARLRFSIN

Acetyl-CoA carboxylase 2 = Acetyl-CoA carboxylase 2 (Homo sapiens, UniProt O00763); assay: Inhibition of recombinant human ACC2 assessed as reduction in conversion of acetyl-CoA to malonyl-CoA incubated for 1 to 3 hrs with substrate by MALDI-TOF-MS analysis
[1] = Metabolic stability in rat liver microsomes assessed as parent compound remaining after 30 mins; assay type: ADME, microsome; settings: read-out: Stability
[2] = Metabolic stability in human liver microsomes assessed as parent compound remaining after 30 mins; assay type: ADME, microsome; settings: read-out: Stability

Sequence of Cytochrome P450 2C19 (P33261 whole entry): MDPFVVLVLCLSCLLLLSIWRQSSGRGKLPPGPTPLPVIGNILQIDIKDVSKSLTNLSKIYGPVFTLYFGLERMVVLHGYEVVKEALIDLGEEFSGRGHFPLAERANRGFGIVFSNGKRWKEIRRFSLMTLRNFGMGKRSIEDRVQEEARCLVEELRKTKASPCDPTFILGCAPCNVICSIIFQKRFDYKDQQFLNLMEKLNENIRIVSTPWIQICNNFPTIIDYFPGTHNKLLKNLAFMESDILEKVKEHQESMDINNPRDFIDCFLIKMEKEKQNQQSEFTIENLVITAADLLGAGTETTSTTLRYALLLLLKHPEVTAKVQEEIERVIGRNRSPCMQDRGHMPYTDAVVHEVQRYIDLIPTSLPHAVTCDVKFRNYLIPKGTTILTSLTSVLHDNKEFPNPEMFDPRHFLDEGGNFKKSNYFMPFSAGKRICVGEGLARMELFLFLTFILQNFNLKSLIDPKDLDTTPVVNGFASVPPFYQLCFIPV
Sequence of Cytochrome P450 3A4 (P08684 whole entry): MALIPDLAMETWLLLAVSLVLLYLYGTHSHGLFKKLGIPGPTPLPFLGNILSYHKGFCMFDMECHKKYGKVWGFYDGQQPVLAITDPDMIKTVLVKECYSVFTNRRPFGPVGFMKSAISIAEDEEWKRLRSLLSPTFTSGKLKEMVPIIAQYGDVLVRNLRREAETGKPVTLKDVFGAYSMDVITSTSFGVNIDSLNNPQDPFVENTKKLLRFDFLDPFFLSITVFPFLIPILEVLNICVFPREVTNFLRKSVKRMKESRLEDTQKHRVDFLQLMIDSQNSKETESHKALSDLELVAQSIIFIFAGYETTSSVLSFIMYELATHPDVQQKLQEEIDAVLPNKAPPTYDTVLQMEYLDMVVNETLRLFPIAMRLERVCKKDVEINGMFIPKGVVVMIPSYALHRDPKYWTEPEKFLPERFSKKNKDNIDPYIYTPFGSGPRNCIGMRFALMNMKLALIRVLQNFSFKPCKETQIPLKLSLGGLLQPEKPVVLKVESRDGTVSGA
Sequence of Cytochrome P450 2C9 (P11712 whole entry): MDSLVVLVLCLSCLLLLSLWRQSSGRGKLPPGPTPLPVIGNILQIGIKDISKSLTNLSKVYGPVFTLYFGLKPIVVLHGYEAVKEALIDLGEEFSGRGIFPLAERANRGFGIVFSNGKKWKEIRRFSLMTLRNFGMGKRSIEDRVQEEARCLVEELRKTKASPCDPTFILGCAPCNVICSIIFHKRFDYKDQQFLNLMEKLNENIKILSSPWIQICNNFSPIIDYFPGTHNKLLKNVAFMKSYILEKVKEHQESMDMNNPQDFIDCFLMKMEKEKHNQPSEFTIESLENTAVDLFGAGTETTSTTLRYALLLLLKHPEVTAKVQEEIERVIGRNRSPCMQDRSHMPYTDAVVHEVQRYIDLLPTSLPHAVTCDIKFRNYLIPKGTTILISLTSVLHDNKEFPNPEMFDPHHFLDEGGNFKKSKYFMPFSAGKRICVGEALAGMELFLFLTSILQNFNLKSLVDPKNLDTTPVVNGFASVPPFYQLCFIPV
Sequence of Acetyl-CoA carboxylase 2 (O00763 whole entry): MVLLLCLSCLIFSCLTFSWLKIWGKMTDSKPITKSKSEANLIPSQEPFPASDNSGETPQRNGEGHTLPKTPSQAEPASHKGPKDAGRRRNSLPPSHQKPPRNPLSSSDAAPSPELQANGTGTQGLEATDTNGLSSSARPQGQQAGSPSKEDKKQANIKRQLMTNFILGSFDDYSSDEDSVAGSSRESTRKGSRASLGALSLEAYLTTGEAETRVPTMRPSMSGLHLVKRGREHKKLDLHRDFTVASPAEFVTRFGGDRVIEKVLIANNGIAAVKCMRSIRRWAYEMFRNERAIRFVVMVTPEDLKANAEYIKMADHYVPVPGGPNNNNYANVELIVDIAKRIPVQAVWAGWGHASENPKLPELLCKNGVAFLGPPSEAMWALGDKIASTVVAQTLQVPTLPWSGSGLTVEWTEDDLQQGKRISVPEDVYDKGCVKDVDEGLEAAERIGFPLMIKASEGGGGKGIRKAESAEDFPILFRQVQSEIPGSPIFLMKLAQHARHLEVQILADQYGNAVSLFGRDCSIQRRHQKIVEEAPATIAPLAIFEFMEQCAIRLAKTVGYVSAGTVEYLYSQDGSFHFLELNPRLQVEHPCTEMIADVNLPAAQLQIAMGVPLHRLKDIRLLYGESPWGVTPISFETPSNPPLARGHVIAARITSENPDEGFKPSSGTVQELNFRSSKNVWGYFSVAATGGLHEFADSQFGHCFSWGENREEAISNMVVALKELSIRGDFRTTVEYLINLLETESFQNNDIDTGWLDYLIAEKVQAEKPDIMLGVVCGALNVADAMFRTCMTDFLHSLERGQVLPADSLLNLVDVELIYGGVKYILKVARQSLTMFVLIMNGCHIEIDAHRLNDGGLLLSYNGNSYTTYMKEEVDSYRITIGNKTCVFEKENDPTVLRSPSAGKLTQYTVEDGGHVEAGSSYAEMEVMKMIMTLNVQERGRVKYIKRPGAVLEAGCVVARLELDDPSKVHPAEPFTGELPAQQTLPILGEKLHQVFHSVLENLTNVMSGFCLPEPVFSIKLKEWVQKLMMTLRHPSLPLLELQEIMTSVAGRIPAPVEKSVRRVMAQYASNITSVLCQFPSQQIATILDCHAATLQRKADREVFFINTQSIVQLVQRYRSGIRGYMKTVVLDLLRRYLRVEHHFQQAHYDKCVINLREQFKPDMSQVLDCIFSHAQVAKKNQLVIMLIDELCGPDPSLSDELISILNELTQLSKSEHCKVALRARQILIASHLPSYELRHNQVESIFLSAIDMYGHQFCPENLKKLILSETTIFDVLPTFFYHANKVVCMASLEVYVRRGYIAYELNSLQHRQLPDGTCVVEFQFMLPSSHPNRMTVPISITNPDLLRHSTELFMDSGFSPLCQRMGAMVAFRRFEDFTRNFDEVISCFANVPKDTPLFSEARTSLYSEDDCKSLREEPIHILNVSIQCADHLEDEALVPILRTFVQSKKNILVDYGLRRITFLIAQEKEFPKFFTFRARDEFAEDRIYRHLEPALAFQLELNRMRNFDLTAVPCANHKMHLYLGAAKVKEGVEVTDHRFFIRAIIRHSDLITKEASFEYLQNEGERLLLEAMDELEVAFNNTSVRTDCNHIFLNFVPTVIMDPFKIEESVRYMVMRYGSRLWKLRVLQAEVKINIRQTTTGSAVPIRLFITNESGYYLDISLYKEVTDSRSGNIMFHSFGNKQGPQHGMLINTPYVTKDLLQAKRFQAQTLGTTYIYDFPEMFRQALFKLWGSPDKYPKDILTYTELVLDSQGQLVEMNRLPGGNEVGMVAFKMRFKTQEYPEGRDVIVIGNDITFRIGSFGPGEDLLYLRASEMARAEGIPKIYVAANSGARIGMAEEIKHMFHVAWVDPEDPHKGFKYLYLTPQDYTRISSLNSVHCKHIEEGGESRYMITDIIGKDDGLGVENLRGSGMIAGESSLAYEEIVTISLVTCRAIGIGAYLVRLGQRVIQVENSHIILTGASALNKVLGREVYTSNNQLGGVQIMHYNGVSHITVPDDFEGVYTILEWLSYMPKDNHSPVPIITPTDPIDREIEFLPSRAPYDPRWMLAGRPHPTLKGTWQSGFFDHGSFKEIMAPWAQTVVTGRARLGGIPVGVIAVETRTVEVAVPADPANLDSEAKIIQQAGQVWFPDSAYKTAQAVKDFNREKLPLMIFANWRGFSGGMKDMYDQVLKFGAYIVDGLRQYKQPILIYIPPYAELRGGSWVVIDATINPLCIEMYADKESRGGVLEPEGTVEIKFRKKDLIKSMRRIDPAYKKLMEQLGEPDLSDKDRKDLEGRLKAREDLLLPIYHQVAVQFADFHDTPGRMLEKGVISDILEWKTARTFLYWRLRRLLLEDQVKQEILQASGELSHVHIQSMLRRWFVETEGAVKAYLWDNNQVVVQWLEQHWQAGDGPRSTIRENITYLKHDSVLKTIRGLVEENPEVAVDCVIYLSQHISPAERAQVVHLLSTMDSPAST
Sequence of Cytochrome P450 2D6 (P10635 whole entry): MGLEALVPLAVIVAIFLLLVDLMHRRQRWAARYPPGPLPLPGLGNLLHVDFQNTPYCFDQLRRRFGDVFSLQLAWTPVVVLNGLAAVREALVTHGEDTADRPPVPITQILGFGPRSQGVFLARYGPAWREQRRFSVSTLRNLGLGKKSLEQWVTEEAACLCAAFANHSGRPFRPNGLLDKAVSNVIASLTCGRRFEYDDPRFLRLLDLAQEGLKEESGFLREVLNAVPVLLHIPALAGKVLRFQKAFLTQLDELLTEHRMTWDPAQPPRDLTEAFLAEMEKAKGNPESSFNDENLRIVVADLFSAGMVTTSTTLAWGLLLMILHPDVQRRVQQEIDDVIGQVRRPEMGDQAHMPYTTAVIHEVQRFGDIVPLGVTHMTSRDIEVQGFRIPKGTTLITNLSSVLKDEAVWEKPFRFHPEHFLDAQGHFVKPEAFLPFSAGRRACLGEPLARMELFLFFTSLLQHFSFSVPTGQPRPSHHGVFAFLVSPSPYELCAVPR

SMILES | pIC50 (Cytochrome P450 3A4) | pIC50 (Cytochrome P450 2C9) | Ratio IC50 (Homo sapiens) | pIC50 (Cytochrome P450 2C19) | pIC50 (Acetyl-CoA carboxylase 1) | pIC50 (Cytochrome P450 2D6) | pIC50 (Cytochrome P450 1A2) | pIC50 (Acetyl-CoA carboxylase 2) | remaining at 0.5 h [1] [%] | remaining at 0.5 h [2] [%]
CCOc1ccc(Oc2ncc(/C=C/[C@H](C)NC(C)=O)s2)cc1 | < 4.70 | 5.07 | > 1270 | < 4.70 | < 4.00 | < 4.70 | < 4.70 | 7.10 |  | 
CC(=O)N[C@@H](C)/C=C/c1ccc(Oc2cc3sc(C)nc3cc2Cl)nc1 | < 4.70 | < 4.70 | 110 | < 4.70 | 4.28 | < 4.70 | < 4.70 | 6.33 | 83 | 94
CC(=O)N[C@@H](C)/C=C/c1cnc(Oc2ccc(OCC3CC3)cc2Cl)n1C | < 4.70 | 5.00 | 82 | < 4.70 | 4.43 | < 4.70 | < 4.70 |  |  | 
CC(=O)N[C@@H](C)/C=C/c1ccc(Oc2ccc3nc(C(C)C)sc3c2F)nc1 | < 4.70 | < 4.70 | 17 | < 4.70 | 7.46 | < 4.70 | < 4.70 | 8.68 | 51 | 84
CC(=O)N[C@@H](C)/C=C/c1cnc(Oc2ccc(OCC3CC3)cc2Cl)s1 | < 4.70 | 5.46 | 98 | 4.85 | 5.90 | < 4.70 | < 4.70 | 7.89 |  | 
CC(=O)N[C@@H](C)/C=C/c1cnc(Oc2ccc(OCC3CC3)cc2)s1 | < 4.70 | 5.09 | 63 | 4.74 | 5.71 | < 4.70 | < 4.70 | 7.51 |  | 
CC(=O)N[C@@H](C)/C=C/c1ccc(Oc2ccc(OCCF)cc2Cl)nc1 | < 4.70 | < 4.70 | > 537 | < 4.70 | < 4.00 | < 4.70 | < 4.70 | 6.73 |  | 
CC(=O)N[C@@H](C)/C=C/c1cnc(Oc2ccc(OCC3CC3)cc2Cl)nc1 | < 4.70 | < 4.70 | > 2080 | < 4.70 | < 4.00 | < 4.70 | < 4.70 | 7.32 |  | 
COC(=O)N[C@@H](C)/C=C/c1cnc(Oc2ccc(OC(C)C)cc2)s1 | < 4.70 | 5.57 | > 1320 | 5.19 | < 4.00 | < 4.70 | < 4.70 | 7.12 |  | 
CC(=O)N[C@@H](C)/C=C/c1cnc(Oc2ccc(OC(C)C)cc2)s1 | < 4.70 | 5.36 | 809 | < 4.70 | 4.27 | < 4.70 | < 4.70 | 7.18 |  | 
CC(=O)N[C@@H](C)/C=C/c1ccc(Oc2ccc3nc(C(C)(C)O)sc3c2Cl)nc1 | < 4.70 | 4.77 | 315 | < 4.70 | 5.50 | < 4.70 | < 4.70 | 8.00 | 96 | 92
CC(=O)N[C@@H](C)/C=C/c1cnc(Oc2ccc(OCC3CC3)cc2Cl)cn1 | < 4.70 | < 4.70 | 30 | < 4.70 | 6.12 | < 4.70 | < 4.70 | 7.60 |  | 

Second part, the compound after the results:

pIC50 (Cytochrome P450 3A4) | pIC50 (Cytochrome P450 2C9) | Ratio IC50 (Homo sapiens) | pIC50 (Cytochrome P450 2C19) | pIC50 (Acetyl-CoA carboxylase 1) | pIC50 (Cytochrome P450 2D6) | pIC50 (Cytochrome P450 1A2) | pIC50 (Acetyl-CoA carboxylase 2) | remaining at 0.5 h [1] [%] | remaining at 0.5 h [2] [%] | SMILES
4.80 | 5.02 | 140 | < 4.70 | 6.02 | < 4.70 | < 4.70 |  |  |  | CC(=O)N[C@@H](C)/C=C/c1ccc(Oc2ccc(OCC3CC3)cc2Cl)nc1
< 4.70 | 4.82 | > 395 | < 4.70 | < 4.00 | < 4.70 | < 4.70 | 6.60 |  |  | CC(=O)N[C@@H](C)/C=C/c1nnc(Oc2ccc(OCC3CC3)cc2Cl)s1
< 4.70 | < 4.70 | > 1190 | < 4.70 | < 4.00 | < 4.70 | < 4.70 | 7.08 |  |  | CC(=O)N[C@@H](C)/C=C/c1ccc(Oc2ccc(OCC(F)F)cc2Cl)nc1
4.74 | < 4.70 | > 327 | < 4.70 | < 4.00 | < 4.70 | < 4.70 | 6.51 |  |  | CC(=O)N[C@@H](C)/C=C/c1ccc(Oc2ccc(OCC3CC3)cc2Cl)nn1
< 4.70 | 4.85 | 21 | 4.96 | 6.07 | < 4.70 | < 4.70 | 7.40 | 77 | 88 | CC(=O)N[C@@H](C)/C=C/c1ccc(Oc2ccc3sc(C(C)C)nc3c2Cl)nc1
< 4.70 | < 4.70 | 469 | < 4.70 | 4.91 | < 4.70 | < 4.70 | 7.59 | 75 | 87 | CC(=O)N[C@@H](C)/C=C/c1ccc(Oc2ccc3nc(C)sc3c2Cl)nc1
< 4.70 | < 4.70 | > 2170 | < 4.70 | < 4.00 | < 4.70 | < 4.70 | 7.34 |  |  | CCOc1ccc(Oc2ccc(/C=C/[C@H](C)NC(C)=O)cn2)c(Cl)c1
4.72 | 4.89 | 70 | 4.74 | 6.52 | < 4.70 | < 4.70 | 8.37 | 52 | 83 | CC(=O)N[C@@H](C)/C=C/c1ccc(Oc2ccc3nc(C(C)C)sc3c2Cl)nc1
4.77 | 4.85 | 126 | 4.74 | 5.13 | < 4.70 | < 4.70 | 7.23 | 83 | 87 | CC(=O)N[C@@H](C)/C=C/c1ccc(Oc2ccc3nc(C(C)C)sc3c2C(F)(F)F)nc1
